Measured values as given in patent publication US5897874A, “Expulsion of material from a delivery device” (R. P. Scherer Corporation, priority 1993, dated 1999).
Where “and” joins values, the source holds several entries; their conditions need not be identical. Equal values may be shown once.

Assay: Drug release/delivery (pulse) time of capsule in stirred purified water at 37° C., spectrophotometric
Type: physicochemical
Description: A coated gelatin capsule of the type shown in FIG. 1 was filled with hydrogel powder prepared as in Example 1 of particle size 425 to 710 microns, and metoclopramide drug included as a separate layer. The hydrogel powder was compacted leaving a 4.5 mm space between the top of the hydrogel layer 10 and the mouth of the body 6. The metoclopramide was placed on top and the body was sealed with a hydrogel plug. […] The nominal delivery time was three hours.
In order to assess the delivery time to release of the drug, each capsule was placed in a liter of purified water at 37° C. stirred with a paddle at 50 rpm. The presence of drug in the water was monitored spectrophotometrically.
The procedure was repeated with a capsule having a hydrogel plug designed to provide a nominal delivery time of five hours. […] The "space" represents the space between the top of the hydrogel layer and the mouth of the body after inclusion of the drug. The space allows insertion of the plug to its correct depth without interference from the hydrogel powder fill. In this case the hydrogel plug was recessed 0.5 mm below the upper end of the neck of the capsule body.
Drug release was monitored spectrophotometrically at 226 nm.

Row | Delivery Time (individual capsules 1 to 6, Example 2, hydrogel powder excipient, nominal delivery time three hours, 37° C., paddle 50 rpm) | mean delivery time (six capsules, Example 2, standard deviation 0.10, nominal three hours, hydrogel powder excipient) [h] | mean pulse time (Example 4, standard deviation of 0.1, nominal three hour pulse time, shorter plug, hydrogel excipient) [h] | Compound
1 | 3.25 h and 3.00 h | 3.21 |  | CCN(CC)CCNC(=O)c1cc(Cl)c(N)cc1OC [metoclopramide]
2 |  |  | 3.29 | salbutamol sulphate
